# Measured values as given in US8993527B2, “Methods, compositions, and formulations for preventing or reducing adverse effects in a patient” (Pericor Therapeutics, Inc., priority 2005, dated 2015).
# Like-named read-outs stand apart in the source and are kept apart here.
# Tests used:
# [1] = system: HPRT+ neuroblastoma cells; assay: Adenosine excretion by stimulated HPRT+ neuroblastoma cells; assay type: cell-based; details: 50 μM AICA riboside, calcium ionophore A23187, 1.0 μM deoxycoformycin
# Method: To induce ATP catabolism, the growth medium was replaced by medium containing micromolar amounts of the calcium ionophore A23187 and 1.0 μM deoxycoformycin.
# myocardial infarct = assay: Myocardial infarct size in rats after coronary artery ligation; assay type: in vivo, rat; details: bolus plus osmotic mini-pump infusion, three weeks, vs saline
# Text: The animals were continuously exposed by infusion of either AICA riboside in saline or saline using osmotic mini-pumps well known to those in the art. After three weeks, the rats were sacrificed and infarct size quantitated by planimarizing stained sections of fixed hearts.
# [2] = system: adenylosuccinase deficiency (autism); assay: Therapeutic trial of oral AICA riboside in patients with adenylosuccinase deficiency (autism); assay type: in vivo, human
# Text: Following authorization, therapeutic trials with AICA riboside were started in two patients with adenylosuccinase deficiency (autism). […] On Day 55, both patients were briefly readmitted for clinical, biochemical and psychiatric evaluation. […] Treatment was maintained until Day 71, and arrested at that date. […] A correct assessment of the renal loss of the nucleoside could not be obtained. […] The following parameters were found normal before and during the trial treatment with AICA riboside: red blood cell count, white blood cell count, platelet and reticulocyte counts; leukocyte differentiations; hematocrit, ionogram, Ca, phosphate, urea, creatinine, uric acid, cholesterol, lipids, SGOT, SGPT, CPK, glucose, lactate and ammonia.
# [3] = system: pentylene tetrazol-induced seizures; assay: Suppression of pentylene tetrazol-induced seizures; assay type: in vivo, rat; details: 2000 mg/kg (total dose) intraperitoneal
# [4] = system: isoproterenol (isuprel)-induced arrhythmias; assay: Suppression of isoproterenol (isuprel)-induced arrhythmias; assay type: in vivo, rat; details: 1000 mg/kg intraperitoneally
# Method: Five minutes later both animals were anesthetized with 330 mg/kg of chloral hydrate injected intraperitoneally. Then a single EKG lead was attached to each rat for simultaneous recording of the paired rats' electrocardiograms. To produce arrhythmia, each rat was injected subcutaneously with isuprel […].
# Beginning 30 minutes after isuprel introduction, the electrocardiograph recording paper speed was run (5 cm/sec) for 10 minutes to count the arrhythmic beats of both animals.
# [5] = Phase 2 CABG trial: plasma AICA riboside concentrations and clearance; assay type: in vivo; details: human, intravenous, low and high doses, pre- and post-bypass, read-out: total plasma clearance (CLp) (converted)
# Method: 10. Plasma Levels. […] Individual values and group means were tabulated and drug clearance calculated. Dose proportionality was assessed.
# The data are also presented graphically in FIG. 18.
# [6] = biological target: T1, calf intestinal musosa adenosine deaminase (Bos taurus, UniProt P56658); assay: Adenosine deaminase activity; assay type: biochemical; details: 80 μM adenosine, 10 minutes at 37° C.
# T1 construct: 0.002 units of calf intestinal musosa adenosine deaminase; from tissue; host or cells: calf intestinal mucosa
# T1 sequence (P56658 whole entry): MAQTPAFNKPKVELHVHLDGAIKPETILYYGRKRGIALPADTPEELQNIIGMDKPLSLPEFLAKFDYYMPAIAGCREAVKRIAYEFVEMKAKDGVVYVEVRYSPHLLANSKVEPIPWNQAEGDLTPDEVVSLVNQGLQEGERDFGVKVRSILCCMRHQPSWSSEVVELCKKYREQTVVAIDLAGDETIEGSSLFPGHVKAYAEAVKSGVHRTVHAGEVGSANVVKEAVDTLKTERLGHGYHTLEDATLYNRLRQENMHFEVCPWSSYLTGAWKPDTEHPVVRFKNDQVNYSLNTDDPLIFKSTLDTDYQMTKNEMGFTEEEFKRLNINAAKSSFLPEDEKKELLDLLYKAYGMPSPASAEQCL
# Method: Different concentrations of the test compounds were incubated in the assay mixture for 10 minutes at 37° C. The reaction was monitored continuously for oxidation of NADH from the change in absorbance at 340 nm.
# [7] = system: patients undergoing CABG surgery
# [8] = system: patients undergoing CABG surgery; assay type: in vivo; details: 0.05 mg/kg/min
# [9] = plasma level 3.00–4.00 μg/ml, n = 44
# [10] = plasma level 4.00–5.00 μg/ml, n = 61
smiles,measurement,setting,value
"NC(=O)c1ncn([C@@H]2O[C@H](CO)[C@@H](O)[C@H]2O)c1N [1 (1-110), 5-amino-1-β-D-ribofuranosyl-imidazole-4-carboxamide]",adenosine secreted vs control cells,[1],at least twofold more adenosine than control cells
same,reduction of infarct size,myocardial infarct,33%
same,side effects,[2]; oral 5 mg/kg/day up to 2×10 mg/kg/day,No clinical or biochemical side effects were observed
same,AICA riboside in plasma and CSF,"[2]; oral, all dosages used",could not be detected
same,autistic features after two months of continuous administration,"[2]; younger patient, older patient without modification",clear-cut improvement
same,latency to seizure,[3],dramatic prolongation of latency to seizure
same,ventricular fibrillation,[4],complete suppression
same,clearance,[5],~20 mL/min/kg
same,IC50,[6],> 5 mM
same,"Cardiac Death, incidence","[7]; Low Dose, n = 214",5 (2.3%)
same,"Cerebrovascular Accident, incidence","[7]; Low Dose, n = 214",2 (0.9%)
same,"Combined Clinical Outcomes, incidence","[7]; Low Dose, n = 214",23 (10.7%)
same,"Congestive Heart Failure, incidence","[7]; Low Dose, n = 214",6 (2.8%)
same,"Life-Threatening Dysrhythmia, incidence","[7]; Low Dose, n = 214",9 (4.2%)
same,decrease in incidence of MI,[7]; high dose vs placebo,68%
same,decrease in incidence of cerebrovascular accident,[7]; high dose vs placebo,88%
same,reduction in the incidence of combined outcomes,[7]; high dose vs placebo,61%
same,incidence of myocardial infarction by either ECG or CK-MB,"[7]; high dose, placebo 24.1%",20.8%
same,"Myocardial Infarction MI, incidence","[7]; plasma level 0.25–2.00 μg/ml, n = 83",2 (2.4%)
same,"Combined Clinical Outcome, incidence","[7]; plasma level 0.25–2.00 μg/ml, n = 89",9 (10.1%)
same,"Myocardial Infarction MI, incidence","[7]; plasma level 2.00–3.00 μg/ml, n = 114",5 (4.4%)
same,"Combined Clinical Outcome, incidence","[7]; plasma level 2.00–3.00 μg/ml, n = 116",11 (9.5%)
same,"Combined Clinical Outcome, incidence",[7]; [9],3 (6.8%)
same,"Myocardial Infarction MI, incidence",[7]; [9],1 (2.3%)
same,"Combined Clinical Outcome, incidence",[7]; [10],2 (3.3%)
same,"Myocardial Infarction MI, incidence",[7]; [10],0
same,"Myocardial Infarction MI, incidence","[7]; plasma level 5.00–6.00 μg/ml, n = 49",2 (4.1%)
same,"Combined Clinical Outcome, incidence","[7]; plasma level 5.00–6.00 μg/ml, n = 50",3 (6.0%)
same,"Myocardial Infarction MI, incidence","[7]; plasma level <0.25 μg/ml, n = 209",9 (4.3%)
same,"Combined Clinical Outcome, incidence","[7]; plasma level <0.25 μg/ml, n = 211",29 (13.7%)
same,"Myocardial Infarction MI, incidence","[7]; plasma level >6.00 μg/ml, n = 44",1 (2.3%)
same,"Combined Clinical Outcome, incidence","[7]; plasma level >6.00 μg/ml, n = 46",4 (8.7%)
same,effect of low-dose acadesine on outcome,[8],no significant effect on any outcome measure
